Results: US20240376090A1, “ISOXAZOLE DERIVATIVES AS MODULATORS OF THE 5-HT2A SEROTONIN RECEPTOR USEFUL FOR THE TREATMENT OF DISORDERED RELATED THERETO” (Arena Pharmaceuticals, Inc., priority 2020, published 2024)

Tests used:
[1] = target: T1, 5-HT2A receptor (Homo sapiens (Human), UniProt P28223); assay: Radioligand binding assay ([3H]5-HT competition), 5-HT2A; settings: [3H]5-HT radioligand, membranes of HEK293 cells expressing recombinant 5-HT2A; Ki from IC50 by Cheng-Prusoff; read-out: 5-HT2A serotonin binding Ki value
[2] = target: T1, 5-HT2A receptor; assay: HTRF IP-One antagonist assay, 5-HT2A; format: cell-based; settings: HEK293 cells stably expressing recombinant human receptor; IP accumulation with 80 nM 5-HT
Protocol: (§1) HEK293 cells stably expressing 5-HT2 receptors were generated using standard procedures. Cells were dilution cloned and clonal cell lines stably expressing the receptors at low levels were selected for pharmacology studies. In radioligand binding studies using a variety of radiolabeled probes, receptor densities in the 2A, 2B and 2C cell lines were estimated to be 50-70, 150-200, and 10-20 fmol/mg, respectively.
(§2) Inositol phosphate accumulation assays were performed using the HTRF IP-One assay system developed by Cisbio and generally followed the manufacturer's instructions. Briefly, HEK293 cells stably expressing recombinant human receptors were harvested and resuspended in phenol-red free OptiMEM (ThermoFisher), plated into 384-well assay plates (Perkin Elmer, ProxiPlate-Plus® Cat #6008280) at 10,000 cells/well in a volume of 10 μL/well, and incubated overnight at 37° C., 5% CO2. Test compounds were solubilized and serially diluted in DMSO, and then diluted into Assay Buffer (Tris HCl 20 mM, NaCl 150 mM, LiCl 40 mM, pargyline 25 μM, pH 8) containing 80 nM 5-HT. Test compounds were added to the cells (4 μL/well addition, maximal final assay concentration typically 10 μM) and plates, incubated for 2 hrs at 37° C./5% CO2 and then removed from the incubator and allowed to cool to room temperature for 30 minutes prior to addition of IP-One detection reagents. IP-One detection reagents (6 μL/well) were added and plates incubated for 1 hr at room temperature before reading on an HTRF compatible reader such as a Perkin Elmer EnVision® or BMG PheraStar®. Dose-response experiments utilized 10-point curves, typically starting at 10 μM, with 5-fold serial dilutions. Experiments were performed with triplicate data points and independent replicate experiments were performed to ensure data consistency.

[3] = target: 5-HT2B receptor (Homo sapiens (Human), UniProt P41595); assay: HTRF IP-One antagonist assay, 5-HT2B; format: cell-based; settings: HEK293 cells stably expressing recombinant human receptor; IP accumulation with 80 nM 5-HT
Protocol: as §1, §2

[4] = target: 5-HT2C receptor (Homo sapiens (Human), UniProt P28335); assay: HTRF IP-One antagonist assay, 5-HT2C; format: cell-based; settings: HEK293 cells stably expressing recombinant human receptor; IP accumulation with 80 nM 5-HT
Protocol: as §1, §2

T1 sequence (P28223 whole entry): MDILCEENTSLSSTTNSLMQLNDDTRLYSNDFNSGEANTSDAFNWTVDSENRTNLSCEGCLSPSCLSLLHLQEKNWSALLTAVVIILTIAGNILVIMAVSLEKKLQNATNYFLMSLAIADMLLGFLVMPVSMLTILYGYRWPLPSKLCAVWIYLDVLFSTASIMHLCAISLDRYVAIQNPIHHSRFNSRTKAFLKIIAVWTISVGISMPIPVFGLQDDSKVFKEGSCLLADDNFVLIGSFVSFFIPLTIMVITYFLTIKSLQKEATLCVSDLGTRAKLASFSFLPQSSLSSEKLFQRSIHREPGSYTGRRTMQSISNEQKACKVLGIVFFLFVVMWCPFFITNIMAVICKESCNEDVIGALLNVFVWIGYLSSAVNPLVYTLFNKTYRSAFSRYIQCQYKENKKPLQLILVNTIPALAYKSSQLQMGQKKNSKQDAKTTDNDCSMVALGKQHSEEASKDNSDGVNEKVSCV
5-HT2B receptor, sequence (P41595 whole entry): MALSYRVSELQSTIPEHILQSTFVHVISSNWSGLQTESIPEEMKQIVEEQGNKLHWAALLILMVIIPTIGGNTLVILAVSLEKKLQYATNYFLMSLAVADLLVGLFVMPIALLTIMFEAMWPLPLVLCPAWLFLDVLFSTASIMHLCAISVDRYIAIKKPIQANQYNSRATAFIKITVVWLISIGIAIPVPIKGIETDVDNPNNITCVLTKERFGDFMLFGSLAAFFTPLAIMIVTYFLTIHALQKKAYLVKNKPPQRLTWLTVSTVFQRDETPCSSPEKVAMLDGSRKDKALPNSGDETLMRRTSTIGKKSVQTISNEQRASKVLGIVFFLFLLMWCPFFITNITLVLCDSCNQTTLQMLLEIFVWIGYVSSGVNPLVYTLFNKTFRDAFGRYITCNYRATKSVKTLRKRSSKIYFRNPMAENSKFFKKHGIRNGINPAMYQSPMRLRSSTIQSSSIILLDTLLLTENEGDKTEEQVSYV
5-HT2C receptor, sequence (P28335 33-458): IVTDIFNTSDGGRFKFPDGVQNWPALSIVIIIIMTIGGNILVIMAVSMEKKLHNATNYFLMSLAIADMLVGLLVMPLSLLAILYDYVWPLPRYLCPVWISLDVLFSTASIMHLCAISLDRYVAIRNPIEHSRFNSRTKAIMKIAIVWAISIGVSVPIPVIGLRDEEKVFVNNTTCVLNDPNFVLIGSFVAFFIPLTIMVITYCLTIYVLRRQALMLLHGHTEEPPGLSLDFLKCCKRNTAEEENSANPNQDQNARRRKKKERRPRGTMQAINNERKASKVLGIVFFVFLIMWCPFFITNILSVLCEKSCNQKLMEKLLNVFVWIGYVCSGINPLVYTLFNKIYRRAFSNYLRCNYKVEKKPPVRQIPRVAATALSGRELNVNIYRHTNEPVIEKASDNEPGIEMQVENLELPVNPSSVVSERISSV

## Cc1noc(C)c1-c1cc(NC(=O)c2ccc(F)cc2)ccc1OCCN1CCC1 [Compound 121, N-(4-(2-(azetidin-1-yl)ethoxy)-3-(3,5-dimethylisoxazol-4-yl)phenyl)-4-fluorobenzamide]
[1]
  Ki: 4.67 nM
[2]
  IC50: 29.7 nM

## Cc1noc(C)c1-c1cc(NC(=O)C2(F)CC2)ccc1OCCN1CCCC1 [Compound 113, N-[3-(3,5-dimethylisoxazol-4-yl)-4-(2-pyrrolidin-1-ylethoxy)phenyl]-1-fluoro-cyclopropanecarboxamide]
[1]
  Ki: 2.66 nM
[3]
  IC50: ≥ 100000 nM
[2]
  IC50: 8.95 nM
[4]
  IC50: ≥ 100000 nM

## Cc1noc(C)c1-c1cc(NC(=O)C2CC2)ccc1OCCN1CCC2(CCC(=O)O2)CC1 [Compound 141, N-(3-(3,5-dimethylisoxazol-4-yl)-4-(2-(2-oxo-1-oxa-8-azaspiro[4.5]decan-8-yl)ethoxy)phenyl)cyclopropanecarboxamide]
[1]
  Ki: 9.47 nM
[3]
  IC50: ≥ 100000 nM
[2]
  IC50: 49.7 nM
[4]
  IC50: ≥ 100000 nM

## Cc1noc(C)c1-c1cc(NC(=O)c2c(F)cnn2C)ccc1OC[C@H]1CCCCN1 [Compound 230, (R)—N-(3-(3,5-dimethylisoxazol-4-yl)-4-(piperidin-2-ylmethoxy)phenyl)-4-fluoro-1-methyl-1H-pyrazole-5-carboxamide]
[1]
  Ki: 6.17 nM
[3]
  IC50: ≥ 100000 nM
[2]
  IC50: 6.17 nM

## COCCNCCOc1ccc(NC(=O)C2CC2)cc1-c1c(C)noc1C [Compound 197, N-[3-(3,5-dimethylisoxazol-4-yl)-4-[2-(2-methoxyethylamino)ethoxy]phenyl]cyclopropanecarboxamide]
[1]
  Ki: 1.08 nM
[3]
  IC50: ≥ 100000 nM
[2]
  IC50: 4.95 nM
[4]
  IC50: ≥ 100000 nM

## Cc1ncsc1C(=O)Nc1ccc(OCCN2CCC2)c(-c2c(C)noc2C)c1 [Compound 119, N-(4-(2-(azetidin-1-yl)ethoxy)-3-(3,5-dimethylisoxazol-4-yl)phenyl)-4-methylthiazole-5-carboxamide]
[1]
  Ki: 9.58 nM
[3]
  IC50: ≥ 100000 nM
[2]
  IC50: 13 nM
[4]
  IC50: ≥ 100000 nM

## Cc1noc(C)c1-c1cc(NC(=O)[C@@H]2C[C@@H]2F)ccc1OC[C@H]1CCCCN1 [Compound 192, (1S,2S)—N-(3-(3,5-dimethylisoxazol-4-yl)-4-(((R)-piperidin-2-yl)methoxy)phenyl)-2-fluorocyclopropane-1-carboxamide]
[1]
  Ki: 4.91 nM
[3]
  IC50: ≥ 100000 nM
[2]
  IC50: 31.1 nM

## Cc1noc(C)c1-c1cc(NC(=O)c2c(F)cnn2C)ccc1OCCN1CCCC1 [Compound 114, N-(3-(3,5-dimethylisoxazol-4-yl)-4-(2-(pyrrolidin-1-yl)ethoxy)phenyl)-4-fluoro-1-methyl-1H-pyrazole-5-carboxamide]
[1]
  Ki: 2.6 nM
[3]
  IC50: ≥ 100000 nM
[2]
  IC50: 8.69 nM
[4]
  IC50: ≥ 100000 nM

## Cc1noc(C)c1-c1cc(NC(=O)Cc2cccc(F)c2)ccc1OCCN1CCC1 [Compound 125, N-(4-(2-(azetidin-1-yl)ethoxy)-3-(3,5-dimethylisoxazol-4-yl)phenyl)-2-(3-fluorophenyl)acetamide]
[1]
  Ki: 4.5 nM
[3]
  IC50: ≥ 100000 nM
[2]
  IC50: 38.2 nM

## CCOC1CC1C(=O)Nc1ccc(OC[C@H]2CCCCN2)c(-c2c(C)noc2C)c1 (stereo partly drawn) [Compound 229, N-(3-(3,5-dimethylisoxazol-4-yl)-4-(((R)-piperidin-2-yl)methoxy)phenyl)-2-ethoxycyclopropane-1-carboxamide]
[1]
  Ki: 4.72 nM
[3]
  IC50: ≥ 100000 nM
[2]
  IC50: 20.7 nM
[4]
  IC50: ≥ 100000 nM

## Cc1ncoc1C(=O)Nc1ccc(OC[C@H]2CCCCN2)c(-c2c(C)noc2C)c1 [Compound 196, (R)—N-(3-(3,5-dimethylisoxazol-4-yl)-4-(piperidin-2-ylmethoxy)phenyl)-4-methyloxazole-5-carboxamide]
[1]
  Ki: 10.2 nM
[3]
  IC50: ≥ 100000 nM
[2]
  IC50: 45 nM
[4]
  IC50: ≥ 100000 nM

## Cc1noc(C)c1-c1cc(NC(=O)c2ccccc2)ccc1OC[C@H]1CCCCN1 [Compound 218, (R)—N-(3-(3,5-dimethylisoxazol-4-yl)-4-(piperidin-2-ylmethoxy)phenyl)benzamide]
[1]
  Ki: 4.85 nM
[3]
  IC50: ≥ 100000 nM
[2]
  IC50: 21.8 nM
[4]
  IC50: ≥ 100000 nM

## CC(=N)NCCOc1ccc(NC(=O)C2CC2)cc1-c1c(C)noc1C [Compound 198, N-(4-(2-acetimidamidoethoxy)-3-(3,5-dimethylisoxazol-4-yl)phenyl)cyclopropanecarboxamide]
[1]
  Ki: 5.39 nM
[3]
  IC50: ≥ 100000 nM
[2]
  IC50: 22.8 nM
[4]
  IC50: 3730 nM

## Cc1noc(C)c1-c1cc(NC(=O)Cc2cccc(F)c2)ccc1OC[C@H]1CCCCN1 [Compound 223, (R)—N-(3-(3,5-dimethylisoxazol-4-yl)-4-(piperidin-2-ylmethoxy)phenyl)-2-(3-fluorophenyl)acetamide]
[1]
  Ki: 1.69 nM
[3]
  IC50: ≥ 100000 nM
[2]
  IC50: 14.7 nM
[4]
  IC50: ≥ 100000 nM

## Cc1noc(C)c1-c1cc(NC(=O)C2(F)CC2)ccc1OC[C@H]1CCCCN1 [Compound 217, (R)—N-(3-(3,5-dimethylisoxazol-4-yl)-4-(piperidin-2-ylmethoxy)phenyl)-1-fluorocyclopropane-1-carboxamide]
[1]
  Ki: 1.21 nM
[3]
  IC50: ≥ 100000 nM
[2]
  IC50: 5.19 nM

## COc1cccc(C(=O)Nc2ccc(OCCN3CCC3)c(-c3c(C)noc3C)c2)c1 [Compound 122, N-(4-(2-(azetidin-1-yl)ethoxy)-3-(3,5-dimethylisoxazol-4-yl)phenyl)-3-methoxybenzamide]
[1]
  Ki: 2.7 nM
[2]
  IC50: 8.92 nM

## Cc1noc(C)c1-c1cc(NC(=O)C2CC2)ccc1OC1CNC1 [Compound 172, N-(4-(azetidin-3-yloxy)-3-(3,5-dimethylisoxazol-4-yl)phenyl)cyclopropanecarboxamide]
[1]
  Ki: 6.5 nM
[3]
  IC50: ≥ 100000 nM
[2]
  IC50: 109 nM

## Cc1ncsc1CC(=O)Nc1ccc(OC[C@H]2CCCCN2)c(-c2c(C)noc2C)c1 [Compound 225, (R)—N-(3-(3,5-dimethylisoxazol-4-yl)-4-(piperidin-2-ylmethoxy)phenyl)-2-(4-methylthiazol-5-yl)acetamide]
[1]
  Ki: 3.18 nM
[3]
  IC50: ≥ 100000 nM
[2]
  IC50: 19.7 nM

## COCCNCCOc1ccc(NC(=O)C2(F)CC2)cc1-c1c(C)noc1C [Compound 237, N-[3-(3,5-dimethylisoxazol-4-yl)-4-[2-(2-methoxyethylamino)ethoxy]phenyl]-1-fluoro-cyclopropanecarboxamide]
[1]
  Ki: 1.14 nM

## Cc1nc(C)c(C(=O)Nc2ccc(OC[C@H]3CCCCN3)c(-c3c(C)noc3C)c2)o1 [Compound 207, (R)—N-(3-(3,5-dimethylisoxazol-4-yl)-4-(piperidin-2-ylmethoxy)phenyl)-2,4-dimethyloxazole-5-carboxamide]
[1]
  Ki: 235 nM

## CCOC1CC1C(=O)Nc1ccc(OCCN2CCCC2)c(-c2c(C)noc2C)c1 (centres unmarked) [Compound 115, N-(3-(3,5-dimethylisoxazol-4-yl)-4-(2-(pyrrolidin-1-yl)ethoxy)phenyl)-2-ethoxycyclopropane-1-carboxamide]
[1]
  Ki: 8.52 nM

## Cc1noc(C)c1-c1cc(NC(=O)c2cnn(C)c2C)ccc1OC[C@H]1CCCCN1 [Compound 211, (R)—N-(3-(3,5-dimethylisoxazol-4-yl)-4-(piperidin-2-ylmethoxy)phenyl)-1,5-dimethyl-1H-pyrazole-4-carboxamide]
[1]
  Ki: 40.9 nM

## Cc1ncsc1C(=O)Nc1ccc(OC[C@H]2CCCCN2)c(-c2c(C)noc2C)c1 [Compound 193, (R)—N-(3-(3,5-dimethylisoxazol-4-yl)-4-(piperidin-2-ylmethoxy)phenyl)-4-methylthiazole-5-carboxamide]
[1]
  Ki: 2.69 nM

## Cc1noc(C)c1-c1cc(NC(=O)C2(F)CC2)ccc1O[C@@H]1CCCNC1 [Compound 235, (R)—N-(3-(3,5-dimethylisoxazol-4-yl)-4-(piperidin-3-yloxy)phenyl)-1-fluorocyclopropane-1-carboxamide]
[1]
  Ki: 45.2 nM

## Cc1noc(C)c1-c1cc(NC(=O)[C@@H]2C[C@@H]2F)ccc1OCCN1CCCC1 [Compound 108, (1S,2S)—N-(3-(3,5-dimethylisoxazol-4-yl)-4-(2-(pyrrolidin-1-yl)ethoxy)phenyl)-2-fluorocyclopropane-1-carboxamide]
[1]
  Ki: 6.21 nM

## COC1(CC(=O)Nc2ccc(OC[C@H]3CCCCN3)c(-c3c(C)noc3C)c2)CC1 [Compound 228, (R)—N-(3-(3,5-dimethylisoxazol-4-yl)-4-(piperidin-2-ylmethoxy)phenyl)-2-(1-methoxycyclopropyl)acetamide]
[1]
  Ki: 66.4 nM

## Cc1noc(C)c1-c1cc(NC(=O)c2cc(Cl)ccn2)ccc1OCCN1CCCC1 [Compound 105, 4-chloro-N-(3-(3,5-dimethylisoxazol-4-yl)-4-(2-(pyrrolidin-1-yl)ethoxy)phenyl)picolinamide]
[1]
  Ki: 3.94 nM
